# Experimental data: US20240238787A1, “PLATE ASSAY DEVICE AND METHOD FOR IN SITU IMAGING” (Duke University, priority 2023, published 2024)
# What was measured:
# [1] = system: P. aeruginosa PA14 biofilm streamers; test: in situ confocal laser scanning microscopy of biofilm and biofilm streamers on ziggurat peg after antibiotic challenge; format: cell-based, Pseudomonas aeruginosa PA14; details: 10 μg/mL
# Excerpt: The intent of this peg 110 is to optimize for in situ confocal imaging. Two imaging techniques were applied to evaluate this. With respect to FIG. 8B, the surface 128i of the distal-most portion 128i of the peg 110 was captured using a tile and z-stack approach. The biomass formed on the edges of the peg 110 and, in the “no antibiotic” samples, could be thick enough to scatter the fluorescent light emission. FIG. 8B illustrates selected 3D tiles of the surface of the surface 128i of the peg 110 with an area of 8.042 mm2. This is known to leave imaging artifacts resembling “holes” in the images observed in FIG. 8B (e.g., “No antibiotic”). Streamers, are often formed in this area. […] With respect to FIGS. 8A and 8C, the surface biomass on the second end 116 analyzed using COMSTAT 2.1 was plotted using EstimationStats. With respect to FIGS. 8D and 8F, the biomass on the second step 128h of the step analyzed using COMSTAT 2.1 was plotted using EstimationStats. […]
# Pegs 110, 150, 160, 170, 180, 190 were imaged in PBS with an inverted Zeiss LSM 900 (Zeiss, Germany) using a 488 nm laser for excitation and detection wavelengths of […] (green) for GFP and 590-700 nm (red) for identifying autofluorescence. […] Biomass quantification of antibiotic plate images was performed using Comstat2 v2.1 as an ImageJ plugin. […]
# [2] = system: P. aeruginosa PA14 biofilm; test: antibiotic challenge of biofilm on ziggurat peg lid (modified ASTM E2799-22), OD 600 reading and CFU count after sonication; format: cell-based, Pseudomonas aeruginosa PA14; details: peg 110, vs no antibiotic; for reduction in CFU on a per area basis: 24 h challenge; for OD600 mean reduction: biofilm recovered in PBS by sonication
# Protocol: The applicability lid having pegs 110 with a ziggurat shape was evaluated to the relevant ATSM standard, E2799-22, modified workflow FIG. 6. Specifically, the pegs 110 were inoculated in a 24-well plate with media at step 300 and incubated at step 304. At step 308, the pegs 110 were then challenged with antibiotics and then incubated again at step 312. At step 316, the pegs were washed or rinsed and, at step 320, placed in PBS for imaging. The pegs 110 were sonicated, at step 324, to remove attached biofilm, which was quantified using OD 600 reading, at step 328, and a CFU count, at step 332. Importantly, the lid 100 could be handled in the same fashion as the commercially available peg lid. The pegs 110 were less rigidly attached to the lid 100 than the commercially available peg lid and could be broken off easily for a biofilm growth check, although due to the ring of biofilm at the air-medium interface typical of wild-type PA14, this could also be verified visually. Due to the design, it was also possible to image in situ. With respect to FIGS. 7A-7D, after imaging, OD 600 and CFU counts were performed to verify no loss of function between the lid 100 optimized for imaging and the commercially available peg lid. Specifically, the raw data and mean difference versus no antibiotics are shown for 100 μg/mL tetracycline, 10 μg/mL tetracycline on an OD 600 basis on the MBEC® Assay (FIG. 7A), the modified plate (FIG. 7B), and on a CFU/mm2 for PA14 (FIG. 7C). […] PA14 was grown on pegs in TSB for 24 hours before recovery. Wells were categorized as “inside” (e.g., those on the dash-dot line) or “outside” (e.g., those on the dashed line) according to the layout in FIG. 9B. The mean differences was plotted using bootstrap sampling distributions and 95% confidence interval is indicated by the ends of the vertical error bars using EstimationStats.
# Experiments were conducted using Pseudomonas aeruginosa PA14, which constitutively expressed GFP. Cultures were grown over-night in tryptic soy broth (VWR International, USA) at 37° C. and 150 rpm. 10 μL of the overnight culture was used to inoculate 50 mL of fresh TSB. The growth plate (24 well, VWR International, USA) was prepared by dispensing […] of broth per well, adding the peg lid 100, and incubating for 24 h at 37° C. and 100 rpm. […]
# Transfers between media and rinse plates were accomplished by lifting the peg lid 100, allowing excess liquid to drip off, and gently placing the lid 100 in the new plate. […] The efficacy of removal from the surface by sonication as not tested, however the resultant OD600 readings for P. aeruginosabetween this and the MBEC® assay were similar […]
smiles,measurement,setting,value
CN(C)[C@@H]1C(O)=C(C(N)=O)C(=O)[C@@]2(O)C(O)=C3C(=O)c4c(O)cccc4[C@@](C)(O)[C@H]3C[C@@H]12 [tetracycline],streamer midpoint diameter as % of the no antibiotic streamer,[1]; no antibiotic streamer 309.09±10.43 μm,12.96%
same,approximate midpoint diameter of biofilm streamer,"[1]; streamer between surface 128i and step 128h, FIG. 8E",~40.05±11.98 μm
same,reduction in CFU on a per area basis,[2]; 10 μg/mL tetracycline,0 fold
same,OD600 mean reduction,[2]; 10 μg/mL tetracycline,0.02
same,reduction in CFU on a per area basis,[2]; 100 μg/mL tetracycline,3 fold
same,OD600 mean reduction,[2]; 100 μg/mL tetracycline,0.03
